Experiments:
trypsin = test: Trypsin activity assay (rate of hydrolysis of BAEE to BA, UV); format: biochemical; settings: for Trypsin activity (%): 0.5 μg of trypsin in 50 mM ammonium bicarbonate, pH 7.9, no additive = 100
Procedure: Trypsin activity measurements were carried out by introducing 1 μg/ml of trypsin to 0.25 mM N-α-benzoyl-L-arginine ethyl ester (BAEE, pH 7.9) at room temperature. Changes in trypsin activity were plotted by measuring the rate of hydrolysis of BAEE to a UV active product, BA, at A 252 nm.

[1] = target: T1, horse skeletal muscle myoglobin (Equus caballus, UniProt P68082); test: Mass spectrometric detection of myoglobin treated with ALS or SDS (electrospray); settings: 5 μM myoglobin with 0.1% surfactant; ALS degraded in 10% acetic acid for 16 hours
T1 construct: horse skeletal muscle myoglobin (Sigma. P/N M0630); purchased Sigma M0630; host or cells: horse skeletal muscle
T1 sequence (P68082 whole entry): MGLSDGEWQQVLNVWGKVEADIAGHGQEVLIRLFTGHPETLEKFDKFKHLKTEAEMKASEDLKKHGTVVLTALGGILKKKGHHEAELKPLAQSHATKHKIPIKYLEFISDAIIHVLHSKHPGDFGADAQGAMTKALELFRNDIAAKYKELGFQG
Procedure: Mass spectrometric detection was performed on myoglobin using a Platform LC (Micromass, Manchester, UK) with constant infusion. A stock solution of 50 μM horse skeletal muscle myoglobin (Sigma. P/N M0630) was prepared in 50/50 20 mM ammonium acetate, pH 5.1/acetonitrile (v/v). A stock solution of 1% SDS and 1% ALS were also prepared in both 50/50 ammonium acetate/acetonitrile, and 40/40/10 ammonium acetate/acetonitrile/glacial acetic acid. The surfactant stock solutions were both prepared fresh, and allowed to sit for at least 16 hours. To 100 μL of each of the surfactant stock solutions was added 100 μL of myoglobin stock and 800 μL 50/50 ammonium acetate/acetonitrile. Each solution was then drawn into a 1 mL syringe and placed in a syringe pump (Harvard Instruments). The solution was infused into the mass spectrometer at a flow rate of 20 μL/min. Mass spectrometer settings were as follows:
Gas flow rate: 340 L/h; Source temperature: 100° C., Capillary voltage: 3.46 kV; Cone voltage: 25 V; Ion energy: 0.6; Scan rate: 3.0 sec/scan; Scan range: 250-1600 amu.

[2] = pH 7
Source text: After the chemical reaction proceeds, the surfactant of the present invention involved in enhancing the chemical reaction can be degraded, e.g., by contact with an acidic solution.

Glu-C = target: T2, Glu-C (Staphylococcus aureus, UniProt P0C1U8); test: Comparative digestion of myoglobin with Glu-C; format: biochemical; settings: with ALS, no observable digestion without ALS
T2 construct: purchased Roche Diagnostics
T2 sequence (P0C1U8 69-336): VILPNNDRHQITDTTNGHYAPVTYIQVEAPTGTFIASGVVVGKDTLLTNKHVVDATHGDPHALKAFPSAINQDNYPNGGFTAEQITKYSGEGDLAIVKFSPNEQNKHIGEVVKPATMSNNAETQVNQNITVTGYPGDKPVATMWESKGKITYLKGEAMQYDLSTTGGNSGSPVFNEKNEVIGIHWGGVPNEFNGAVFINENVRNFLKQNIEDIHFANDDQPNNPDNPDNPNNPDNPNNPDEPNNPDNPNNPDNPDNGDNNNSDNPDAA
Procedure: (§1) Proteins (2-20 μM), indicated in Table 2, were solubilized in 50 mM NH4HCO3 or 0.1-0.25% (w/w) ALS before tryptic digestion. The trypsin to protein ratio used was 1-2%. The protein (˜17 μM) was solubilized with 8M urea or 0.25% ALS. After tryptic digestion, ALS was destroyed rapidly by addition of strong acid such as HCl or TFA. The by-products were removed by centrifugation prior to MS analysis. Protein digests were mass analyzed either by a MALDI.TOF mass spectrometer (M@LDI™ LR, Micromass UK Ltd) or separated by RP-HPLC (CapLC®, Waters Corporation) then interfaced to an orthogonal acceleration TOF mass spectrometer (LCT™, Micromass UK Ltd) via an electrospray ionization source.
(§2) Myoglobin comparative digestion was performed as in Example 3 (in the presence and absence of ALS), with the exchange of the following proteases for trypsin: • A. Asp-N (FIG. 4A) • B. Lys-C (FIG. 4B) • C. Glu-C (FIG. 4C) Digestions were performed for about 50 minutes. The enzymes were purchased from Roche Diagnostics. Analysis is shown in FIGS. 4A-4C, as indicated above. In each case, when no ALS was in the digestion solution, no observable digestion took place. However, with ALS, within about 50 minutes, the entire protein was consumed.

Lys-C = target: T3, Lys-C (Lysobacter enzymogenes, UniProt Q7M135); test: Comparative digestion of myoglobin with Lys-C; format: biochemical; settings: with ALS, no observable digestion without ALS
T3 construct: purchased Roche Diagnostics
T3 sequence (Q7M135 whole entry): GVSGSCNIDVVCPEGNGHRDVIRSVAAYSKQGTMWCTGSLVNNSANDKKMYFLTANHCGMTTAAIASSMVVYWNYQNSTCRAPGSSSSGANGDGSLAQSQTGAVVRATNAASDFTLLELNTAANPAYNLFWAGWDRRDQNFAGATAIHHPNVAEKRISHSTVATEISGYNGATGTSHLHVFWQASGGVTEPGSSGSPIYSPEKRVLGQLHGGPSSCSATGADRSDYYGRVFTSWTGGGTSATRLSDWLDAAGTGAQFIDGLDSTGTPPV
Procedure: as §1, §2

| Compound | Trypsin activity (%) (trypsin; additive at 50%) | Myoglobin signal in electrospray mass spectrum [1] | Trypsin activity (%) (trypsin; additive at 0.1%) | Trypsin activity (%) (trypsin; additive at 0.5%) | other results |
| --- | --- | --- | --- | --- | --- |
| CC#N [Acetonitrile] | 92% | – | – | – | – |
| CO [Methanol] | 31% | – | – | – | – |
| CCCCCCCCCCCCOS(=O)(=O)[O-].[Na+] [SDS, sodium dodecylsulfate] | – | no signals due to myoglobin are observed | 20% | 1% | Effect on trypsin activity (in words) (trypsin; each of the percentages examined): inhibits trypsin activity |
| NC(N)=O [Urea] | – | – | – | – | Trypsin activity (%) (trypsin; additive at 2M): 85%; Trypsin activity (%) (trypsin; additive at 4M): 71% |
| sodium 4-[(2-methyl-2 undecyl-1,3-dioxolan-4-yl)methyl]-1-propanesulfonate [ALS] | – | strong myoglobin signal | 99% | 87% | Stability of the surfactant [2]: stable; Time until the entire protein (myoglobin) was consumed (Glu-C): ≤ 50 min; Effect on trypsin activity (in words) (trypsin; ALS added to the trypsin solution containing SDS): increase in trypsin activity; Time until the entire protein (myoglobin) was consumed (Lys-C): ≤ 50 min |
